Experimental data: patent publication US5773444A, “Quinazolines as inhibitors of endothelin converting enzyme” (Warner-Lambert Company, priority 1997, dated 1998)
Non-standard residues stand in square brackets, D forms with d. Residues, ends and D or L forms follow the SMILES beside them. No end group written: not given here.

Assays:
[1] = system: mouse model of endotoxic shock; conditions: cited from earlier work
[2] = system: isolated nonischemic and ischemic rat hearts; conditions: cited from earlier work; for preischemic increase in coronary perfusion pressure induced by big ET-1 and its proischemic effect: phosphoramidon 100 μM, BQ-123 0.3 μM; for IC50: isolated rat hearts, read-out: IC50, reduction of coronary flow; for time to contracture in globally ischemic rat hearts: pretreatment / 10 nMol big ET-1
[3] = system: ET-1-induced bronchoconstriction and tracheal smooth muscle contraction; conditions: allergic sheep; cited from earlier work
[4] = system: models of acute renal ischemia and subarachnoid hemorrhage in rats; conditions: cited from earlier work
[5] = system: rats subjected to coronary occlusion and reperfusion; conditions: given IV; cited from earlier work
[6] = system: intracellular conversion of big ET-1 to ET-1; conditions: cultured vascular endothelial cells and smooth muscle cells; cited from earlier work
[7] = system: pressor response of big ET-1; conditions: ganglion-blocked anesthetized rats; cited from earlier work
[8] = system: hemodynamic actions of big ET-1 in rat brain; conditions: cited from earlier work
[9] = system: vasoconstrictor effects evoked by intravenous injections of big ET-1; conditions: anaesthetized pigs; cited from earlier work
[10] = system: pressor response of big ET; conditions: micromolar concentrations, in vitro and in vivo; cited from earlier work
[11] = target: T1, endothelin converting enzyme (ECE) (Homo sapiens, UniProt P42892); assay: ECE assay (partially purified ECE from EA.hy926, ET-1 production by RIA); assay type: biochemical; conditions: 100 μM thiorphan or 100 nM phosphoramidon
T1 construct: ECE was partially purified from EA.hy926 grown in 150 roller; endogenous in cells; host or cells: EA.hy926 (human umbilical vein endothelial cells fused with A549); detergent-solubilised membranes, RCA-I lectin eluate

[12] = system: caliber of the basilar artery and systemic arterial pressure; conditions: anesthetized dogs, intracisternal big ET-1; cited from earlier work
[13] = system: neutral endopeptidase 24.11 (NEP 24.11); assay: NEP 24.11 inhibition under ECE assay conditions; assay type: biochemical, human; conditions: 100 μM thiorphan or 100 nM phosphoramidon
From the text: The cell line, EA.hy926, contains neutral endopeptidase 24.11 (NEP 24.11) which also cleaves big ET-1 to ET-1 and c-terminal fragment (manuscript submitted). […] All the data were obtained in the linear range of time-course curves.

[14] = system: lethality induced by the intravenous infusion of big ET-1; conditions: in vivo; cited from earlier work
[15] = system: effects of big ET-1 in the microvasculature; conditions: anesthetized hamsters; cited from earlier work
behavioral effects = conditions: intracerebroventricular, rats; cited from earlier work
[16] = system: gastric mucosal hemorrhagic change; conditions: 50-500 pmol/kg into the left gastric artery; cited from earlier work
blood pressure = conditions: in vivo; cited from earlier work

T1 sequence (P42892 whole entry, the tested form may be a part): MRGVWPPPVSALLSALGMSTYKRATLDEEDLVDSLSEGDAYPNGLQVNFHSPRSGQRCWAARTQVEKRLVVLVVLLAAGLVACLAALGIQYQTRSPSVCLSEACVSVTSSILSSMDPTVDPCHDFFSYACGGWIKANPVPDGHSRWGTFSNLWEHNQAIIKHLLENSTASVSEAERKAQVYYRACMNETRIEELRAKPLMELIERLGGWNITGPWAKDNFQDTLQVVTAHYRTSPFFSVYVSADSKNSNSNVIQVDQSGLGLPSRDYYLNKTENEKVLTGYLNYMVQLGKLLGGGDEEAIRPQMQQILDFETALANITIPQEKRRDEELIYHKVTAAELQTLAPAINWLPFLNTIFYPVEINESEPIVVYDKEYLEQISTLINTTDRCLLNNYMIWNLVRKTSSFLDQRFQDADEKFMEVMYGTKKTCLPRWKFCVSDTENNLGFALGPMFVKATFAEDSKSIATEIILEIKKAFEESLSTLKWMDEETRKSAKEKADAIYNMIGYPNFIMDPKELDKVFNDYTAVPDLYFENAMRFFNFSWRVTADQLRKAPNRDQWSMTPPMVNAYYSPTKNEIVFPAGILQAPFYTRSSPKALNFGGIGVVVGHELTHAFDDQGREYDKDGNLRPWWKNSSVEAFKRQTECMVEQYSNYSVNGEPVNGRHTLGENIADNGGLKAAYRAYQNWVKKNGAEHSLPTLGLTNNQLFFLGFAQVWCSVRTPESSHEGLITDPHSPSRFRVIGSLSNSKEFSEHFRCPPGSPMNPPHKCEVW

Compound: CC(C)C[C@@H]1NC(=O)[C@@H](C(C)C)NC(=O)[C@@H]2CCCN2C(=O)[C@@H](CC(=O)O)NC(=O)[C@@H](Cc2c[nH]c3ccccc23)NC1=O [BQ-123] (cyclo(L[dW][dD]P[dV]))
- survival rate [1]: significantly increased the survival rate
- preischemic increase in coronary perfusion pressure induced by big ET-1 and its proischemic effect [2]: abolished
- ET-1-induced bronchoconstriction and tracheal smooth muscle contraction [3]: block ET-1-induced bronchoconstriction and tracheal smooth muscle contraction

Compound: COc1cccc(Oc2c(NS(=O)(=O)c3ccc(C(C)(C)C)cc3)ncnc2OCCO)c1 [RO 46-2005]
- efficacy in models of acute renal ischemia and subarachnoid hemorrhage [4]: effective

Compound: CC(C)C[C@H](NP(=O)(O)O[C@@H]1O[C@@H](C)[C@H](O)[C@@H](O)[C@H]1O)C(=O)N[C@@H](Cc1c[nH]c2ccccc12)C(=O)O [phosphoramidon]
- infarct size 24 hour postischemia [5]: significantly reduce infarct size
- inhibition of intracellular conversion of big ET-1 to ET-1 [6]: inhibit the intracellular conversion of big ET-1 to ET-1
- block of pressor response of big ET-1 [7]: blocked by phosphoramidon in a dose-dependent manner
- inhibition of hemodynamic actions of big ET-1 [8]: phosphoramidon sensitive inhibition of hemodynamic actions of big ET-1
- preischemic increase in coronary perfusion pressure induced by big ET-1 and its proischemic effect [2]: abolished
- effect on plasma ET-1 level [9]: did not have any effect on the plasma ET-1 level
- vasoconstrictor effects evoked by i.v. big ET-1 [9]: inhibit vasoconstrictor effects
- block of pressor response of big ET [10]: block the pressor response of big ET
- effect on ECE activity at NEP-blocking concentration [11]: without affecting the ECE activity
- block of big ET-1 effects on basilar artery caliber and systemic arterial pressure [12]: These effects were blocked by phosphoramidon
- NEP 24.11 inhibition [13]: completely inhibited
- lethality induced by the intravenous infusion of big ET-1 [14]: suppress the lethality
- effects of big ET-1 in the microvasculature [15]: inhibit the effects of big ET-1

Compound: ET-1: potent vasoconstrictor, is a 21 amino acid bicyclic peptide
- behavioral effects (behavioral effects): evoke behavioral effects
- IC50 [2]: 12 µM
- time to contracture in globally ischemic rat hearts [2]: significantly reduced the time to contracture
- tissue type plasminogen activator release, platelet activating formation and gastric mucosal hemorrhagic change [16]: increased the tissue type plasminogen activator release and platelet activating formation and induced gastric mucosal hemorrhagic change in a dose-dependent manner

Compound: big ET-1: 38 (human) or 39 (porcine) amino acid peptide known as big endothelin or proendothelin (CSCSSLMDKECVYFCHLDIIWVNTPEHVVPYGLGSPRS; ends and bridges not checked; cysteine pairing not given here; UniProt P05305 53-90, looked up)
- potency at raising blood pressure relative to ET-1 (blood pressure): equally potent in vivo
- IC50 [2]: 0.002 µM
- time to contracture in globally ischemic rat hearts [2]: significantly reduced the time to contracture
